Patent US10940329B2, “Phosphor-containing drug activator activatable by a Monte Carlo derived x-ray exposure, system containing the activator, and methods for use” (IMMUNOLIGHT, LLC, priority 2016, dated 2021)

Tests used:
[1] = system: 4T1-HER2 cells; test: Methylene blue staining for cell viability; format: cell-based, murine; conditions: FIGS. 13C, 13D; individual components; 1 Gy of 80 kVp x-rays; UVADEX 10 uM 8-MOP equivalent, phosphor 25, 50, 100 μg/mL
Source text: Methylene blue staining of viable 4T1-HER2 cells confirms that the device works well according to the target parameters identified above. A plate having six (6) wells is subjected to treatment. […] One well (#1) is the control. One well (#2) has phosphor coated with EC and DLC (H100). One well (#3) has phosphor coated with EC (but no DLC). One well (#4) has drug UVADEX but no phosphors. One well (#5) has drug UVADEX and phosphors coated with EC and DLC. One well (#6) has drug UVADEX and phosphors coated with EC and no DLC.
All wells were exposed to the x-ray conditions noted above. […] One added benefit to a dual coating is redundancy in safety of the treatment.
(§1) Other assays were used to provide independent complimentary information on cell viability, e.g. Methylene blue staining and ATP-induced Luminescence imaging (Cell-Titer-Glo® Luminescence Cell Viability Assay). The luminescence imaging permitted investigation of the cytotoxicity of psoralen activated directly with a UV lamp, and in the absence of phosphors and x-ray radiation.
FIGS. 13A-13D illustrates the efficacy of treatment in-vitro in 4T1-HER2 cells, utilizing a regimen of 1/10-diluted UVADEX (with equivalent of 10 uM 8-MOP), 50 μg/mL phosphor 1 Gy of 80 kVp x-rays. FIG. 13A presents the cell viability data for three treatment conditions: UVADEX alone, phosphors alone, and the combination of UVADEX and phosphors. […]

[2] = system: 4T1-HER2 cells; test: cell viability by Guava flow cytometry (forward scattering); format: cell-based, murine; conditions: FIG. 13A; UVADEX alone, 10 μM 8-MOP equivalent; 1 Gy of 80 kVp; p=0.97
Method: (§2) As part of the baseline study, in-vitro studies were conducted on plated cells following standard procedures. Cells were maintained in RPMI-1640 supplemented with 10% fetal bovine serum and L-glutamine from GIBCO (Grand Island, N.Y.) growing in a humidified atmosphere of 5% CO2. After incubation, cells were trypsinized and plated evenly onto twelve 12-well plates for 24 hours. About 20 minutes prior to irradiation, the 12 wells of each plate were exposed to the following combinations of additives: (1) control—cells only with no additives, (2) UVADEX only, (3) phosphors only, (4) UVADEX+ phosphors. Each plate had 12 wells with three wells for each of the four treatment arms. […]
(§3) Two primary flow cytometry analyses were used, both determined at 48 hours after treatment. […] The first analysis evaluated was metabolic cell viability (herein referred to as cell viability) calculated from the number of whole cells per well as determined using forward scattering (FSC). […]
(§4) FIGS. 13A-13D illustrates the efficacy of treatment in-vitro in 4T1-HER2 cells, utilizing a regimen of 1/10-diluted UVADEX (with equivalent of 10 uM 8-MOP), 50 μg/mL phosphor 1 Gy of 80 kVp x-rays. […] In FIG. 13A, cell viability after treatment (10 μM 8-MOP equivalent dilution of UVADEX, 50 μg/mL phosphor, 1 Gy of 80 kVp radiation) as determined by Guava flow cytome cytometry is depicted. […]

[3] = system: 4T1-HER2 cells; test: Annexin V positivity by flow cytometry; format: cell-based, murine; conditions: FIG. 13B; either with or without x-ray (p values of 0.90 and 0.09)
Method: as §2, §3, §4

[4] = system: CT2A (murine malignant glioma); test: Cell-Titer-Glo Luminescence Cell Viability Assay, UV activated psoralen; format: cell-based; conditions: FIG. 14A; psoralen 40 μM; UV light 0, 0.25, 0.5, 1.0 J/cm^2; N=4
Source text: as §1
(§5) FIG. 14B presents data on CT2A malignant glioma cells, for a range of treatment parameters including variable x-ray dose (0, 0.67 and 1 Gy), phosphor concentration (50 or 100 μg) and psoralen concentration (8-MOP) at 10, 20 and 40 μM respectively. […] N=4 for each cell line at each UV light condition (0, 0.25, 0.5, 1.0 J/cm^2). The psoralen concentration was 40 μM. For FIG. 14B, in CT2A cells, the treatment cytotoxicity increases with X-ray dose (0, 0.67 and 1.00 Gy respectively), concentration of 8-MOP psoralen (10, 20 and 40 μM respectively), and phosphor (50 and 100 μg/ml) respectively (p values shown thereon).

[5] = system: 4T1; test: as above; format: cell-based, murine; conditions: FIG. 14A; psoralen 40 μM; UV light 0, 0.25, 0.5, 1.0 J/cm^2; N=4
Source text: as §1, §5

[6] = system: KP-B (sarcoma) cell lines; test: as above; format: cell-based, mice; conditions: FIG. 14A; psoralen 40 μM; UV light 0, 0.25, 0.5, 1.0 J/cm^2; N=4
Source text: The mouse breast cancer cell line 4T1 was purchased from ATCC. 4T1-HER2 was provided by Dr. Michael Kershaw (Cancer Immunology Program, Peter MacCallum Cancer Centre, Victoria, Australia) and maintained in DMEM with penicillin/streptomycin and 10% FBS The Sarcoma KP-B cell lines were derived from primary tumors LSL-Kras; p53 Flox/Flox mice (45).
as §1, §5

SMILES | cell viability by methyl blue staining [1] | effect of addition of radiation on cell viability [2] | apoptotic activity (Annexin V) [3] | viable cells [4] | viable cells [5] | viable cells [6]
COc1c2occc2cc2ccc(=O)oc12 [UVADEX, 8-methoxypsoralen] | little effect | no significant effect on cell viability | negligible apoptotic activity | – | – | –
O=c1ccc2cc3ccoc3cc2o1 [psoralen] | – | – | – | reduce viable cells | reduce viable cells | reduce viable cells
